Drawing on patent EP4692083A1, “NOVEL AZABICYCLE DERIVATIVES AND PHARMACEUTICAL COMPOSITION FOR INHIBITING AUTOTAXIN, COMPRISING SAME” (Nextgen Bioscience Co., Ltd., priority 2023, dated 2024), this text covers inhibition for 19 compounds.

As a reminder, the inhibition is the percentage by which the read-out fell short of the control.

Structures are written as SMILES.

For the test, the target named is human Autotaxin protein (Homo sapiens, UniProt Q13822). In words: Evaluation of the inhibitory activity against human Autotaxin protein (18:1 LysoPC substrate, choline assay kit, absorbance at 570 nm). Particulars: at 500nM compound, 2 hours at 37 °C, read-out: Inhibition rate (%, at 500nM). It is filed as biochemical. The protocol:
Solutions of each synthesized compound (80 uM, 100% dimethyl sulfoxide) were sequentially diluted 5-fold with dimethyl sulfoxide to prepare 6 concentrations. Each concentration of the compound was diluted 2-fold with 1x test buffer (50 mM Tris-Cl (pH 8.0), 5 mM KCl, 1 mM CaCl2, 1 mM MgCl2, 140 mM NaCl, deionized water, 1 mg/mL BSA), and 1 uL (1.25% dimethylsulfoxide) of the diluted mixture was dispensed into each well of a 96-well clear round-bottom plate. 9 uL of 1x test buffer was added, and 20 uL of 240 nM human autotaxin protein (buffer: 50 mM Tris-HCl, pH 8.0, with 150 mM sodium chloride and 20% glycerol) was added. 10 uL of sonicated 360 uM 18:1 LysoPC (diluted with 1x assay buffer) was added. The reaction was performed for 2 hours in a shaking incubator at 37 °C, and a secondary reaction mixture (choline assay kit, KA1662) (65 uL of 1x assay buffer: 1 uL of choline oxidase: 1 uL of dye probe) was prepared. 60 uL of the secondary reaction mixture was added to the plate where the reaction was performed, and incubated for 30 minutes in a shaker. The absorbance value was measured at a wavelength of 570 nm using a SpectraMax iD3 microplate reader. The percentage inhibition activity value (% inhibition) was calculated by the formula: (1 - absorbance value test group / absorbance value control group) X 100.
On to `Clc1cc(Cl)cc(CNc2ncc(-c3nnc(N4C[C@@H]5[C@H](C4)[C@H]5c4cnn[nH]4)o3)cn2)c1` [Example 7, 5-(5-((1R,5S,6r)-6-(1H-1,2,3-Triazol-5-yl)-3-azabicyclo[3.1.0]hexan-3-yl)-1,3,4-oxadiazol-2-yl)-N-(3,5-dichlorobenzyl)pyrimidin-2-amine], for which the inhibition at 0.5 µM was found to be 92%. As for `COc1ccc(CCNc2ncc(-c3nnc(N4C[C@@H]5[C@H](C4)[C@H]5c4cnn[nH]4)o3)cn2)cc1` [Example 30, 5-(5-((1R,5S,6r)-6-(1H-1,2,3-Triazol-5-yl)-3-azabicyclo[3.1.0]hexan-3-yl)-1,3,4-oxadiazol-2-yl)-N-(4-methoxyphenethyl)pyrimidin-2-amine], the inhibition at 0.5 µM was 95.7%. As for `Fc1cc(F)cc(CNc2ncc(-c3nnc(N4C[C@@H]5[C@H](C4)[C@H]5c4cnn[nH]4)o3)cn2)c1` [Example 5, 5-(5-((1R,5S,6r)-6-(1H-1,2,3-Triazol-5-yl)-3-azabicyclo[3.1.0]hexan-3-yl)-1,3,4-oxadiazol-2-yl)-N-(3,5-difluorobenzyl)pyrimidin-2-amine], the figure is 86.4%; as for `Fc1ccc(CCNc2ncc(-c3nnc(N4C[C@@H]5[C@H](C4)[C@H]5c4cnn[nH]4)o3)cn2)cc1` [Example 13, 5-(5-((1R,5S,6r)-6-(1H-1,2,3-Triazol-5-yl)-3-azabicyclo[3.1.0]hexan-3-yl)-1,3,4-oxadiazol-2-yl)-N-(4-fluorophenethyl)pyrimidin-2-amine], 86%.

Regarding `CN(CCc1ccc(Cl)cc1)c1ncc(-c2nnc(N3C[C@@H]4[C@H](C3)[C@H]4c3cnn[nH]3)o2)cn1` [Example 37, 5-(5-((1R,5S,6r)-6-(1H-1,2,3-Triazol-5-yl)-3-azabicyclo[3.1.0]hexan-3-yl)-1,3,4-oxadiazol-2-yl)-N-(4-chlorophenethyl)-N-methylpyrimidin-2-amine], the inhibition at 0.5 µM is 91.7%.

Turning to `Clc1ccc(CCNc2ncc(C3CC(N4C[C@@H]5[C@H](C4)[C@H]5c4cnn[nH]4)=NO3)cn2)cc1` (stereo partly drawn) [Example 49, 5-(3-((1R,5S,6r)-6-(1H-1,2,3-Triazol-5-yl)-3-azabicyclo[3.1.0]hexan-3-yl)-4,5-dihydroisoxazol-5-yl)-N-(4-chlorophenethyl)pyrimidin-2-amine], the inhibition at 0.5 µM was found to be 76.4%. In the case of `Fc1cccc(CCNc2ncc(-c3nnc(N4C[C@@H]5[C@H](C4)[C@H]5c4cnn[nH]4)o3)cn2)c1` [Example 12, 5-(5-((1R,5S,6r)-6-(1H-1,2,3-Triazol-5-yl)-3-azabicyclo[3.1.0]hexan-3-yl)-1,3,4-oxadiazol-2-yl)-N-(3-fluorophenethyl)pyrimidin-2-amine], the inhibition at 0.5 µM is 82.9%.

As to `Clc1ccc(CNc2ncc(-c3nnc(N4C[C@@H]5[C@H](C4)[C@H]5c4cnn[nH]4)o3)cn2)cc1` [Example 3, 5-(5-((1R,5S,6r)-6-(1H-1,2,3-Triazol-5-yl)-3-azabicyclo[3.1.0]hexan-3-yl)-1,3,4-oxadiazol-2-yl)-N-(4-chlorobenzyl)pyrimidin-2-amine], the inhibition at 0.5 µM amounted to 73.1%. To `O=C(/C=C/c1cnc(NC2Cc3ccccc3C2)nc1)N1C[C@@H]2[C@H](C1)[C@H]2c1cnn[nH]1` [Example 46, (E)-1-((1R,5S,6r)-6-(1H-1,2,3-Triazol-5-yl)-3-azabicyclo[3.1.0]hexan-3-yl)-3-(2-((2,3-dihydro-1H-inden-2-yl)amino)pyrimidin-5-yl)prop-2-en-1-one] belongs 99.4%; to `c1cc2c(cc1CNc1ncc(-c3nnc(N4C[C@@H]5[C@H](C4)[C@H]5c4cnn[nH]4)o3)cn1)OCO2` [Example 9, 5-(5-((1R,5S,6r)-6-(1H-1,2,3-Triazol-5-yl)-3-azabicyclo[3.1.0]hexan-3-yl)-1,3,4-oxadiazol-2-yl)-N-(benzo[d][1,3]dioxol-5-ylmethyl)pyrimidin-2-amine], 40.6%. Regarding `Brc1ccc(CCNc2ncc(-c3nnc(N4C[C@@H]5[C@H](C4)[C@H]5c4cnn[nH]4)o3)cn2)cc1` [Example 27, 5-(5-((1R,58,6r)-6-(1H-1,2,3-Triazol-5-yl)-3-azabicyclo[3.1.0]hexan-3-yl)-1,3,4-oxadiazol-2-yl)-N-(4-bromophenethyl)pyrimidin-2-amine], the inhibition at 0.5 µM was found to be 98.6%. As to `Fc1ccc(CNc2ncc(-c3nnc(N4C[C@@H]5[C@H](C4)[C@H]5c4cnn[nH]4)o3)cn2)cc1F` [Example 4, 5-(5-((1R,5S,6r)-6-(1H-1,2,3-Triazol-5-yl)-3-azabicyclo[3.1.0]hexan-3-yl)-1,3,4-oxadiazol-2-yl)-N-(3,4-difluorobenzyl)pyrimidin-2-amine], the inhibition at 0.5 µM was determined as 81.5%. On to `c1ccc(CCNc2ncc(-c3nnc(N4C[C@@H]5[C@H](C4)[C@H]5c4cnn[nH]4)o3)cn2)nc1` [Example 32, 5-(5-((1R,5S,6r)-6-(1H-1,2,3-Triazol-5-yl)-3-azabicyclo[3.1.0]hexan-3-yl)-1,3,4-oxadiazol-2-yl)-N-(2-(pyridin-2-yl)ethyl)pyrimidin-2-amine], for which the inhibition at 0.5 µM amounted to 48.7%.

`Brc1cc(Br)cc(CNc2ncc(-c3nnc(N4C[C@@H]5[C@H](C4)[C@H]5c4cnn[nH]4)o3)cn2)c1` [Example 8, 5-(5-((1R,5S,6r)-6-(1H-1,2,3-Triazol-5-yl)-3-azabicyclo[3.1.0]hexan-3-yl)-1,3,4-oxadiazol-2-yl)-N-(3,5-dibromobenzyl)pyrimidin-2-amine]: the inhibition at 0.5 µM stood at 97.3%. To `Clc1ccc(CCNc2cnc(-c3nnc(N4C[C@@H]5[C@H](C4)[C@H]5c4cnn[nH]4)o3)cn2)cc1` [Example 42, 5-(5-((1R,5S,6r)-6-(1H-1,2,3-Triazol-5-yl)-3-azabicyclo[3.1.0]hexan-3-yl)-1,3,4-oxadiazol-2-yl)-N-(4-chlorophenethyl)pyrazin-2-amine] belongs 68.4%; to `Cc1nn[nH]c1[C@H]1[C@@H]2CN(c3nnc(-c4cnc(NCCc5ccc(Cl)cc5)nc4)o3)C[C@@H]21` [Example 48, N-(4-Chlorophenethyl)-5-(5-((1R,5S,6r)-6-(4-methyl-1H-1,2,3-triazol-5-yl)-3-azabicyclo[3.1.0]hexan-3-yl)-1,3,4-oxadiazol-2-yl)pyrimidin-2-amine], 34.7%. As for `Cn1nncc1[C@H]1[C@@H]2CN(c3nnc(-c4cnc(NCCc5ccc(Cl)cc5)nc4)o3)C[C@@H]21` [Example 47, N-(4-Chlorophenethyl)-5-(5-((1R,5S,6r)-6-(1-methyl-1H-1,2,3-triazol-5-yl)-3-azabicyclo[3.1.0]hexan-3-yl)-1,3,4-oxadiazol-2-yl)pyrimidin-2-amine], the inhibition at 0.5 µM worked out at 13.9%. Take `Cc1ccc(CCNc2ncc(-c3nnc(N4C[C@@H]5[C@H](C4)[C@H]5c4cnn[nH]4)o3)cn2)cc1` [Example 31, 5-(5-((1R,5S,6r)-6-(1H-1,2,3-Triazol-5-yl)-3-azabicyclo[3.1.0]hexan-3-yl)-1,3,4-oxadiazol-2-yl)-N-(4-methylphenethyl)pyrimidin-2-amine]: the inhibition at 0.5 µM came out at 97%. Consider `FC(F)(F)c1ccc(CNc2ncc(-c3nnc(N4C[C@@H]5[C@H](C4)[C@H]5c4cnn[nH]4)o3)cn2)cc1` [Example 20, 5-(5-((1R,5S,6r)-6-(1H-1,2,3-Triazol-5-yl)-3-azabicyclo[3.1.0]hexan-3-yl)-1,3,4-oxadiazol-2-yl)-N-(4-(trifluoromethyl)benzyl)pyrimidin-2-amine], for which the inhibition at 0.5 µM was 88.5%.
